We go through one substance from patent publication US20160295854A1, “COMPOSITION AND METHOD FOR EX-VIVO IMMUNOMODULATION AND/OR PRESERVATION OF ORGANS, METHODS AND USE” (UNIAO BRASILEIRA DE EDUCACAO E ASSISTENCIA , MANTENEDORA DA …, priority 2014, published 2016).

Test [1] deals with MHC II. The test can be described thus: MHC II expression in LPS-activated BMDCs. The format is cell-based, mice (Mus musculus). The following applies: BMDCs treated or not with LPS 24 h, then treated or not with Hsp70 for additional 24 h.
Test [2] relates to MARCH-I. Kind of test: MARCH-I mRNA in DCs by real time PCR. It is filed as cell-based, mice (Mus musculus). The procedure: The supernatants were collected and used for analyzing cytokine. The cells were further treated with 20 ng/ml of Rapamycin (Cell Signaling), 1 μg/ml of Cyclosporine A (Roche) or 20 ng/ml of IL-10 recombinant murine (R&D System) for 24 h and the total RNA was removed.
The total RNA was isolated from the DCs treated using the kit RNAeasy (Qiagen), according to the manufacturer instructions. The total purified RNA concentration was determined with the kit Qubit® RNA Assay Kit (Invitrogen), read in the Qubit® Fluorometer (Invitrogen). 50 ng of the RNA had reverse transcriptase with 100 U of Sensiscript (Qiagen). DNA concentrations were determined with the kit Qubit® dsDNA HS Assay (Invitrogen), read in the Qubit® Fluorometer (Invitrogen). In a final volume of 10 μL, 8 ng of cDNA were applied using some assays Taqman® Gene Expression (Applied Biosystems): IL10 (Mm00439614_m1), March1 (Mm00613524_m1) and β-actin (4352933E), according to the manufacturer recommendations.
The quantitative real time PCR was performed in the instrument StepOne™ Real-Time PCR System (Applied Biosystems). The relative levels of mRNA were calculated according to the comparative method of Ct, described by […] & LIVAK (2008). The β-actin constituent gene was used as setter. Non-treated DCs served as reference for OVA or Hsp70-treated DCs.
After that, IL-10 mRNA levels were analyzed by Real-time PCR. The β-actin was used as a setter. The IL-10 concentration was measured in the cultures supernatant by flow cytometry. […] (C) As in A, however the MARCH-I mRNA levels were analyzed by Real-time PCR. […] DCs IL-10 KO were also treated with Recombinant IL-10. All treatments were performed for 24 h and MARCH-I mRNA levels were analyzed by Real-time PCR. […] After this period, grafts were sutured in the BALB/c animals' back and the acceptance was daily monitored. Graphs expressed on average ±SEM. *, p<0.05; **, p<0.01; ***, […]. n=3-5 mice per group. Representative results of 3 independent experiments.
After this period, the MARCH-I expression increase was analyzed by Real-time PCR.
(In general: Quantitative PCR measures a nucleic acid by following its amplification.)

In test [3] the test system is cutaneous allograft (B6 donor skin in BALB/c recipients). The test can be described thus: Murine model of cutaneous allograft, graft immersion-treatment. The format is in vivo, mice (Mus musculus). An excerpt:
A method for treating grafts, including allografts, was developed by the inventors of the present invention. Thus, the method treats the grafts (that may be full organs) instead of recipient that will receive the graft, using as tool a classic murine model of skin transplantation and well established. Such method, to the light of the inventors, may be considered as new and inventive. The said model consists of a complete incompatibility of MHC molecules and was described by BILLINGHAM & MEDAWAR (1951).
BALB/c recipients, which express the MHC II I-A^d molecule, are anaesthetized and the dorsal stem hairs are removed. In the waxed area, 1 cm^2 of the skin was removed in each recipient mouse and the donor tail skin was sutured in the exposed area. The animals are maintained in individual cages and daily monitored. The graft rejection is confirmed by observing the cyanosis, erythema, erosion and cutaneous graft loss.
This model consists of a complete incompatibility of MHC molecules and was described by BILLINGHAM & MEDAWAR (1951). In this model, the donor mouse B6, which expresses the MHC II I-A^b molecule, is sacrificed. […] After this period, the grafts were sutured in the BALB/c recipients' back, who express the MHC II I-A^d molecule, and the rejection clinical progression is daily monitored.
After that, the grafts were sutured in the BALB/c (I-Ad) animals' back. The animals were daily monitored. ***, p<0.0001. n=22-24 mice per group. The results achieved putting the seven independent experiments together.
After this, these grafts were sutured in BALB/c recipients WT and their rejection were daily monitored.
After this, the grafts were sutured in the BALB/c (I-Ad) animals' back. The animals were daily monitored. *, p<0.05. n=4 mice per group.

Test [4] deals with recipient DCs. The test can be described thus: Indirect alloantigen presentation by recipient DCs (Y-Ae antibody). The format is in vivo, mice (Mus musculus). The following applies: BALB/c grafts in B6 recipients; vs OVA. The procedure: Subsequently, the alloantigens presentation was analyzed by the recipient DCs using the antibody Y-Ae. This antibody recognizes a peptide (Eα52-68) expressed in BALB/c animals bound in the MHC II I-A^b molecule (expressed in the B6 animals).

Test [5] concerns STAT3. The test can be described thus: p-STAT3 intracellular marking in BMDCs. The format is cell-based, mice (Mus musculus). The following applies: 30 μg/ml, 45 minutes after the stimulus. The procedure:
As positive control, the cells were stimulated with […] of phorbol myristate acetate (PMA) for 30 minutes. After the stimuli in the periods mentioned, the cells were fixed with Cytofix Buffer (BD Biosciences) for 10 minutes at 37° C. and permeated with Phosflow Perm Buffer III (BD Biosciences) for 30 minutes on ice. After such procedures, the cells were marked for p-ERK1/2 and p-STAT3.
For analyzing the recipients T cells, the cells were marked for CD4 (GK1.5), CD8a (53-6.7), Foxp3 (MF23), Ki67 (B56) achieved from BD Biosciences. […] The levels of phosphorylated ERK and STAT3 were determined using antibodies for p-ERK1/2 and p-STAT3 (BD Biosciences) in BMDCs previously fixed and permeablized. The cells were subsequently analyzed in the flow cytometer FACSCanto II (BD Biosciences) with the BD FACSDiva (BD Biosciences) program. The data achieved were analyzed with the Flowjo program (version 7.6.5, Tree Star).
The p-ERK expression was measured by flow cytometry. […] The p-STAT3 expression was measured by flow cytometry. […] After that, the IL-10 mRNA levels were measured by Real-time PCR and the concentration of this cytokine by flow cytometry, using the kit CBA Mouse Inflammation. […] After that, the MARCH-I mRNA levels were analyzed by Real-time PCR. […]

In the case of “Hsp70: recombinant Mycobacterium tuberculosis Hsp70 (DnaK) produced in Escherichia coli BL21, LPS removed”, the “percentage of CD11c+ I-Ab^hi cells (FIG. 4)” value in test [1] is given as “revert partially”. Also, the “MARCH-I mRNA levels in DCs IL-10 KO (FIG. 11 D)” value in test [2] (DCs from IL-10 knockout animals, 24 h, compared with DCs WT) is “did not present an increase”. Moreover, the “increase in the MARCH-I mRNA (FIG. 11 C)” value in test [2] (DCs isolated from LNs, 24 h) was 20 times. Also, in test [2] (lymph node DCs, 24 hours, Hsp70 30 μg/mL, Rapamycin 20 ng/ml, Cyclosporine A 1 μg/ml, IL-10 20 ng/ml), the “MARCH-I induction on DCs regarding the basal medium (FIG. 24)” value was “only treatment able to induce MARCH-I”. In addition, the “graft acceptance after immersion with Hsp70 or peptides (FIG. 17)” value in test [3] (60 μg/ml Hsp70 or 15 μg/ml peptide, 60 minutes at 4° C., compared to OVA peptide and peptide 5) is on record as “inhibited the acute rejection”. In test [3] (60 μg/ml, 60 minutes at 4° C.), the “graft survival compared with grafts treated with OVA (FIG. 1)” value was “greater survival”. In addition, the “graft protection with grafts from donors IL-10 KO (FIG. 11 E)” value in test [3] (IL-10 KO grafts, 60 μg/ml, 60 minutes) was “cancelled the protection”. Further, in test [3] (graft immersed in 60 μg/mL for 60 minutes, seven independent experiments), the Survival average is 20.0 days. Also, in test [3] (mouse, in vivo), the “lengthening of graft survival with TLR2 KO grafts (FIG. 12 D)” value is listed as “dependent on the TLR2 expression in the graft” and the “survival of WT grafts in WT or TLR2 KO recipients (FIG. 12 E)” value was “very similar survival”. Besides, the “antigens presentation levels by recipient DCs, Y-Ae (FIG. 6 D)” value in test [4] is “no difference”. Also, the “STAT3 phosphorylation in BMDCs (FIG. 13 C)” value in test [5] is reported as “induced the phosphorylation STAT3”.
